Series [1] has as its system Pseudomonas aeruginosa. Type of series: cell-based. The text has this:
(§1) The assays for growth inhibition of a microbial target can be used to derive a minimum bactericidal concentration (MBC) value for the peptide, i.e., the concentration of peptide required to kill 99.9% of the microbial sample being tested. This value is well known to those in the art as representative of the effectiveness of a particular antimicrobial agent (e.g., an antibiotic) against a particular organism or group of organisms. In assays to detect the MBC of a peptide, growth inhibition of a bacterial population also can be measured with reference to the number of colony forming units (cfu) after exposure to a peptide relative to a control experiment without a peptide.
(§2) Bacterial lysis assay. Bacterial lysis assays were conducted in a manner similar to that described previously (Lehrer, R. I., M. E. Selsted, D. Szklarek, and F. J. 1983. Infect. Immun. 42: 10-4, 1983; Miller, M. A., R. F. Garry, J. M. Jaynes, and R. C. Montelaro, AIDS Res Hum Retroviruses 7: 511-519, 1991). Bacterial suspensions were cultured in Luria-Bertani Broth to mid-log growth phase and washed by two cycles of centrifugation and suspension in 10 mM phosphate buffer. The Abs600 of the suspension was adjusted with 10 mM phosphate buffer such that, upon dilution, 5-10×10^5 cfu/mL would be treated in the assay. Bacteria were incubated for 1 h with two-fold dilutions of peptides (100 μM to 100 nM) in 96-well plates using 10 mM phosphate buffer, pH 7.2, as a diluent. Ten-fold dilutions of bacteria were performed to 1:1000; a 100 μl aliquot from each condition was spread on the surface of tryptic soy agar plates (Difco, Detroit, Mich.) which were incubated overnight. Colonies of surviving bacteria (cfu, colony-forming units) were counted and compared to untreated controls to determine the amount of peptide-induced killing under each condition. Log killing is defined as the log of the ratio of cfu present before and after treatment with peptide. The minimal bactericidal concentration, MBC, is the peptide concentration at which 99.9% (three log) killing is achieved (Pearson et al., Antimicrob. Agents Chemother. 18: 699-708, 1980).
(§3) A limitation of many host-derived antimicrobial peptides is their decreased activity at physiologic (150 mM) NaCl concentration. See Friedrich et al., Antimicrobial Agents and Chemotherapy 43:1542-1548. The peptides WLSA-5 (SEQ ID NO:3) and LL37 were tested against the two index strains at physiologic NaCl. […] The activity of eLLPs and LBUs of this invention were compared to an expanded list of clinical bacterial isolates. These are summarized in Table 2 by comparing their MBCs in phosphate buffer alone (low salt) and phosphate buffer containing 150 mM NaCl (physiologic conditions). Inspection of this table would lead one skilled in the art to conclude that the activity of eLLPs and LBUs compare favorably to the host derived antimicrobial peptides as it relates to the spectrum and potency of antimicrobial activity.

Series [2] deals with Staphylococcus aureus. The series can be described thus: Bacterial lysis (broth dilution) assay, MBC. Type of series: cell-based.
Excerpt: as §1, §2, §3
For orientation: Broth dilution looks for growth in wells or tubes with falling amounts of substance.

Series [3] relates to Methicillin Resistant S. aureus. The format is cell-based, Staphylococcus aureus. The following applies: 0 mM NaCl (phosphate buffer, low salt).
Excerpt: as §1
Bacterial lysis assay. Bacterial lysis assays were conducted in a manner similar to that described previously (Lehrer, R. I., M. E. Selsted, D. Szklarek, and F. J. 1983. Infect. Immun. 42: 10-4, 1983; Miller, M. A., R. F. Garry, J. M. Jaynes, and R. C. Montelaro, AIDS Res Hum Retroviruses 7: 511-519, 1991). Bacterial suspensions were cultured in Luria-Bertani Broth to mid-log growth phase and washed by two cycles of centrifugation and suspension in 10 mM phosphate buffer. […] Colonies of surviving bacteria (cfu, colony-forming units) were counted and compared to untreated controls to determine the amount of peptide-induced killing under each condition. […]

Series [4] in a line: Rabbit joint model of septic arthritis. Type of series: in vivo, New Zealand white rabbit. The following applies: peptide administered alone, all animal experiments. An excerpt:
We have extended these findings to a septic arthritis animal model. In this study joint sepsis was induced by inoculating one knee of a 2.5 Kg New Zealand white rabbit with 1×10^5 colony forming units of a clinical S. aureus isolate, a strain resistant to penicillin but sensitive to methicillin, cephalosporins, and clindamycin. Using this model, symptoms of septic arthritis (e.g., degradation of the synovium) were monitored and the ability of antimicrobial agents to limit the degeneration of the joint post-infection can be assessed. In this application the bacterial infection is allowed to establish for 1 h. At this point the joint was accessed and increasing concentrations of LSA-5 (SEQ ID NO:2) (0, 50, 100, and 200 μM) in phosphate buffer (PB) was administered intraarticularly. The concentration of bacteria associated with joint fluid was established at time 0 and 1 h post LSA-5 (SEQ ID NO:2) instillation by plating dilutions of the synovial fluid on LB agar.
This was compared with multiple injections of a standard 0.35% neomycin or a combination of neomycin and LSA-5 (SEQ ID NO:2). Administration of each of these formulations was performed intraarticularly at time 0,1, and 2 h.

The test system of series [5] is Staphylococcus aureus. The following applies: 1×10^5 colony-forming units; cited from earlier work.
For series [6], the system named is diverse gram-negative and -positive bacterial isolates. As to conditions: cited from earlier work.
In series [7] the target is Ca^2+-saturated calmodulin (Homo sapiens, UniProt P0DP23). The following applies: host cell Ca^2+-saturated calmodulin; cited from earlier work.
The mark [8] stands for this setting: 0 mM NaCl (phosphate buffer, low salt).

Molecules are shown by their SMILES. In brackets after ≈: the same amount, converted by molar mass. Read-outs that look alike come from different tables or passages of the source. Residues, ends and D or L forms follow the SMILES beside them.

As usually defined, the MBC is the lowest tested concentration that kills the bacteria rather than only halting them. Turning to `CC[C@H](C)[C@H](NC(=O)[C@H](C)NC(=O)[C@H](CCCNC(=N)N)NC(=O)[C@H](CS)NC(=O)[C@H](C)NC(=O)[C@H](CCCNC(=N)N)NC(=O)[C@H](CCC(N)=O)NC(=O)[C@@H](NC(=O)[C@@H](NC(=O)[C@H](CCCNC(=N)N)NC(=O)[C@@H](NC(=O)[C@@H](NC(=O)[C@@H](N)CCCNC(=N)N)C(C)C)[C@@H](C)CC)C(C)C)C(C)C)C(=O)N[C@@H](CCCNC(=N)N)C(=O)N[C@@H](Cc1c[nH]cn1)C(=O)N[C@H](C(=O)N[C@H](C(=O)N[C@@H](CCCNC(=N)N)C(=O)N[C@@H](CCCNC(=N)N)C(=O)N[C@H](C(=O)N[C@@H](CCCNC(=N)N)C(=O)N[C@@H](CCC(N)=O)C(=O)NCC(=O)N[C@@H](CC(C)C)C(=O)N[C@@H](CCCNC(=N)N)C(=O)N[C@@H](CCCNC(=N)N)C(=O)N[C@H](C(=O)N[C@@H](CC(C)C)C(=O)N[C@@H](CCCNC(=N)N)C(=O)N[C@H](C(=O)N[C@H](C(=O)O)C(C)C)C(C)C)[C@@H](C)CC)[C@@H](C)CC)C(C)C)[C@@H](C)CC` [LSA-5] (H-RVIRVVQRACRAIRHIVRRIRQGLRRILRVV-OH), the MBC was 0.8 µM in series [1] (setting [8]); 0.8 µM (≈ 3.06 µg/mL) in series [1] (150 mM NaCl (physiologic)); 1 µM in series [2] (setting [8]); 1 µM (≈ 3.82 µg/mL) in series [2] (150 mM NaCl (physiologic)); 0.15 µM in series [3]. For the same compound, in series [4], the adverse toxicity entry is “no adverse toxicity was observed”.
As to `CC[C@H](C)[C@H](NC(=O)[C@H](C)NC(=O)[C@H](CCCNC(=N)N)NC(=O)[C@H](CS)NC(=O)[C@H](C)NC(=O)CNC(=O)[C@H](CCC(N)=O)NC(=O)[C@@H](NC(=O)[C@@H](NC(=O)[C@H](CCC(=O)O)NC(=O)[C@@H](NC(=O)[C@@H](NC(=O)[C@@H](N)CCCNC(=N)N)C(C)C)[C@@H](C)CC)C(C)C)C(C)C)C(=O)N[C@@H](CCCNC(=N)N)C(=O)N[C@@H](Cc1c[nH]cn1)C(=O)N[C@H](C(=O)N1CCC[C@H]1C(=O)N[C@@H](CCCNC(=N)N)C(=O)N[C@@H](CCCNC(=N)N)C(=O)N[C@H](C(=O)N[C@@H](CCCNC(=N)N)C(=O)N[C@@H](CCC(N)=O)C(=O)NCC(=O)N[C@@H](CC(C)C)C(=O)N[C@@H](CCC(=O)O)C(=O)N[C@@H](CCCNC(=N)N)C(=O)N[C@H](C(=O)N[C@@H](CC(C)C)C(=O)O)[C@@H](C)CC)[C@@H](C)CC)[C@@H](C)CC` [LLP1] (H-RVIEVVQGACRAIRHIPRRIRQGLERIL-OH; N-terminus and C-terminus assumed), the “time to nearly sterilize suspension” value in series [5] is not above 60 s. Further, the “antibacterial activity compared with magainin-2” value in series [6] was “equal to, or more potent than magainin-2”. Also, the calmodulin binding affinity result in series [7] is listed as “near nanomolar affinity”.
